Laboratory results reported in patent US6545041B2, “Tumor necrosis factor alpha (TNF-α) inhibiting pharmaceuticals” (Yessum Research Development Co. of the Hebrew University of …, priority 1995, dated 2003).

Key:
[1] = in vivo; cited from earlier work
TNF = assay: Serum TNF activity (bioassay) and levels (ELISA) in LPS treated mice; type: in vivo, mice (C57BL/6); conditions: 100 μg LPS ip with 200 μg/mouse compound, 90 min
Method: An early response to LPS administration is the elevation of serum levels of TNF, which peaks at 1.5-2 hr after LPS administration. Mice treated with LPS serve as a model for the effect of drugs on reducing TNF levels under these conditions.
Serum levels of TNF peak within 1.5 hr following LPS administration, and at this time point, we assessed both TNF activity and levels in the serum.
Mice (C57BL/6) were injected ip with 100 μg LPS, concomitantly with HU-211, HU-210, or HU-245 (200 μg/mouse), and 90 min later they were bled, the sera separated and TNF was assayed for its activity (bioassay) and levels (using ELISA kit).

Row | SMILES | cannabimimetic activity relative to Δ-1-tetrahydrocannabinol [1] | TNF levels in serum (ELISA) (TNF)
1 | CCCCCCC(C)(C)c1cc(O)c2c(c1)OC(C)(C)C1CC=C(CO)CC21 (centres unmarked) [HU-210, 7-hydroxy-Δ^6-tetrahydrocannabinol 1,1-dimethylheptyl homologue, reference compound] | ~100 times | 
2 | CCCCCCC(C)(C)c1cc(O)c2c(c1)OC(C)(C)C1CC=C(C(=O)O)CC21 (centres unmarked) [HU-245] |  | significantly reduced
